Measurements as given in patent US20210236465A1, “METHODS AND COMPOSITIONS FOR TREATING HETEROTOPIC OSSIFICATION” (President and Fellows of Harvard College, priority 2019, published 2021).

Experiments:
[1] = test system: Gnas^f/f mice after Ad-Cre injection (POH mouse model); test: POH mouse model: Gnas^f/f mice with subcutaneous Ad-Cre injection, ectopic and endogenous bone by μCT
[2] = test system: Gnas^-/- SMP cells; test: Osteoblast differentiation (ALP) of Gnas^-/- SMP cells in osteogenic medium; assay type: cell-based, mouse
Method: (§1) For ALP staining, cells were fixed in 4% PFA for 20 minutes, washed with PBS for three times, then stained with 1-Step NBT/BCIP (Thermo, 34042) for 30 minutes and washed by PBS. There were three biological replicates for each group. ALP staining was quantified as previously described. Cells were scraped into a radioimmunoprecipitation assay (RIPA) buffer (containing 50 mM Tris-HCl pH 7.5, 150 mM NaCl, 5% Glycerol, 1 mM EDTA, 1% NP-40, 0.1% SDS and 0.25% Na-deoxycholate) and centrifuged. The enzymatic alkaline phosphatase activity in the supernatant of cell lysate was assayed by measuring the chromogenic p-nitrophenol formed from the enzymatic hydrolysis of p-nitrophenyl phosphate (the substrate) by light absorbance at 405 nm. The alkaline phosphatase activity was normalized to total protein, as measured by BCA protein assay. All experiments were performed in triplicates and means and standard deviations were calculated.
Subcutaneous mesenchymal progenitor (SMP) cells are potential osteoprogenitor cells within the subcutaneous connective tissue which can be induced to become osteoblast cells and adipocytes. Subcutaneous skin tissue containing adipose deposits was removed under sterile conditions and washed in PBS supplemented with 100 U/mL penicillin and 100 μg/mL streptomycin on ice. The tissue was then minced, and digested with 1 mg/ml collagenase type I and 0.5% Trypsin in 0.1% BSA for 70 minutes at 37° C. The digested tissue was centrifuged at 500 g for 10 min and the pellet was carefully collected after aspirating off the floating fat depots. After a second centrifugation at 500 g for 10 min, the cellular pellet was filtered through a 100 μm mesh filter to remove debris.
(§2) Cre recombinase adenovirus from Berk (˜10^12 pfu/ml) were diluted 1:50 in 100 μl PBS solution and injected into the subcutaneous region of the limbs of 4 weeks old mice. Six weeks, 3 months or 8 months after injection, the limbs were harvested from euthanized mice and fixed in 4% PFA overnight. Ectopic bone formation was analyzed by μCT and skeletal preparation. The Cre recombinase or GFP adenovirus (˜10^10 pfu/ml) was diluted 1:2000 to infect cells in vitro. Four hours later, fresh medium was added and 24 hours later, the medium was changed.

[3] = test system: WT mice with Achilles tendon puncture (ATP); test: Achilles tendon puncture (ATP) injury-induced HO mouse model, μCT; assay type: in vivo; details: for HO formation (ectopic bone volume): from the day of ATP, vs vehicle
Source text: For ATP mouse model, 4-week-old male mice were anesthetized. A 27-gauge needle was punctured into the Achilles tendon body from the lateral aspect percutaneously and this process was repeated six times at different parts of Achilles tendon body for each mouse. For sham operation, the needle was punctured through the skin without touching the Achilles tendons.
(§3) Mice were fixed overnight in 4% PFA and transferred to 70% ethanol, then analyzed by high-resolution μCT using a deskop μCT (Scanco Medical) according to recommended guidelines. The scanner was set at a voltage of 55 kV and a resolution of 12.3 μm per pixel. The images were reconstructed, analyzed for HO bone volume and endogenous bone mass. Briefly cortical bone parameters and cancellous bone microarchitecture from tibia were determined using a 7-μm isotropic voxel size. For ectopic bone, bone volume was measured. For cancellous bone, bone volume fraction (bone volume per tissue volume [BV/TV]) (percentage), trabecular number (Tb.N) (per millimeter), trabecular thickness (Tb.Th) (millimeter), trabecular separation (Tb.Sp) (millimeter) was analyzed. For cortical bone, cortical area fraction (Ct. BV/TV) (percentage), cortical bone density (Ct. BMD) (mgHA/cm3) were evaluated.

[4] = test system: Shh protein; test: Shh protein levels by Western blotting in Gnas^f/f SMPs after Ad-Cre infection; assay type: cell-based, mouse; details: 200 ng/ml for 7 days after Ad-Cre infection (FIG. 4B)
Method: as §2
Tissue or cell lysates were prepared using a lysis buffer [20 mM Tris (pH 7.4), 150 mM NaCl, 1% Tri-ton X-100, 1 mM EDTA, 1 mM EGTA, 2.5 mM sodium pyrophosphate, 1 mM β-glycerophosphate, 1 mM sodium orthovanadate] or RIPA buffer (Santa Cruz Biotechnology), respectively, containing protease inhibitor mixture (Roche). Total cell lysates were analyzed by Western blotting according to standard procedures.

[5] = test system: ACVR1^R206H; ScxCre mice (FOP model); test: FOP mouse model ScxCre; ACVR1^R206H, HO volume by μCT; assay type: in vivo; details: VP 4 mg/kg/d IP, 5 days per week, starting at 6 weeks of age for 8 weeks
Method: The ACVR1^FlExR206H mice conditionally express ACVR1^R206H/+ knock-in alleles, were kindly provided by Dr. Aris Economides (Regeneron Pharmaceuticals, Inc.), mated with ScxCre mice, to yield ScxCre; ACVR1^FlEx206H/+ mice, which represent a FOP mouse model that develops spontaneous HO of tendons, ligaments, and joints. These mice were treated with Verteporfin (VP) (4 mg/kg/d intraperitoneal (IP) injection, 5 days per week) or an equal volume of PBS for 8 weeks, starting at 6 weeks of age. […]
as §3, with “The scanner was set at a voltage of 55 kV and a resolution of 12.3 μm per pixel.” left out

[6] = test system: ACVR1^Q207D/+ SMPs; test: ACVR1^Q207D/+ SMPs with Ad-Cre infection: ALP activity and QRT-PCR; assay type: cell-based, mouse; details: VP 200 ng/ml for 7 days
Method: as §1
The skin was removed from the hindlimb covering the tibia and the subcutaneous tissue area (5 mm (1)×5 mm (w)×4 mm (h)) where the Ad-Cre were locally injected was isolated. Subcutaneous connective tissue and some muscle cells surrounding the ectopic bone would have been included. Total RNA was isolated first with Trizol (Invitrogen). […] PCR product accumulation was detected using Sybr green (Invitrogen; Platinum SYBR Green qPCR SuperMix-UDG). […]

[7] = Gnas^-/- SMP cells cultured with the inhibitors for 7 days (FIG. 11G)

CC(C)c1cnn2c(NCc3ccccc3)cc(NC[C@H]3CCNC[C@@H]3O)nc12 [CT7001]
HO (ectopic bone volume, μCT) ([1]; CT7001 10 mg/kg gavage every other day after Ad-Cre injection): reduced HO
osteoblast differentiation (ALP) [2, 7]: reduced

CN(C)C/C=C/C(=O)Nc1ccc(C(=O)Nc2cccc(Nc3ncc(Cl)c(-c4c[nH]c5ccccc45)n3)c2)cc1 [THZ1]
HO formation (ectopic bone volume) ([3]; THZ1 (1 mM) applied on the skin of the trauma area): completely blocked
HO (ectopic bone volume, μCT) ([1]; THZ1 10 mg/kg IP injection 5 days a week after Ad-Cre injection): reduced HO
osteoblast differentiation (ALP) [2, 7]: reduced

Verteporfin [VP]
endogenous bone mass (tibia bones) ([3]; VP IP 2.5 mg/kg 5 days per week, VP treated vs control): no significant difference
HO formation (ectopic bone volume) ([3]; VP higher dose 200 μg/ml applied on the skin of the trauma area): completely blocked
HO formation (ectopic bone volume) ([3]; VP low dose 20 μg/ml applied on the skin of the trauma area): reduced
Shh protein levels [4]: decreased
tendon, ligament, and intra-articular HO (HO volume) [5]: significantly reduced
osteoblast differentiation (ALP) [6]: reduced
expression of Yap and Hh target genes, Shh and Ihh ([6]; QRT-PCR): reduced
endogenous bone mass ([1]; 3 months of non-stop VP treatment (IP 2.5 mg/kg)): not reduced
endogenous tibia bone mass ([1]; 6 weeks after VP IP injection (2.5 mg/kg, 5 days per week), treated vs untreated): no significant change
HO after VP withdrawal ([1]; VP IP 2.5 mg/kg for 6 weeks from Ad-Cre injection, then no treatment, harvested 3 months after Ad-Cre): significantly reduced
already formed HO (ectopic bone volume) ([1]; VP IP 2.5 mg/kg started 6 weeks after Ad-Cre injection, 5 times per week for 6 weeks, vs untreated): obviously reduced
HO (ectopic bone volume, μCT) ([1]; VP IP injection (2.5 mg/kg) 5 days a week for 6 weeks, immediately after Ad-Cre injection): more effective HO blockage
HO (ectopic bone volume, μCT) ([1]; VP topically applied (0.2 mg/ml; 200 μg/ml) 5 days per week for 6 weeks, immediately after Ad-Cre injection): HO reduction
osteoblast differentiation (ALP) ([2]; 200 ng/ml for 7 days after Ad-Cre infection (FIG. 4A)): decreased
osteoblast differentiation (ALP) [2, 7]: reduced
